Reference: ChEMBL document CHEMBL1201862, “PubChem BioAssay data set” (2004)
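Dose response: 5 concentrations. Exposure: 48 h. Format: 96-well plates. Endpoint: linear interpolation; highest concentration if not reached. GI50 is the concentration that inhibits growth by half.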 Calls of active or inactive are those of the source. Rule as the data show it: active = GI50 up to about 1.1 µM and inactive = higher.

Tests used:
Experiment in all cases: NCI tumour cell line growth inhibition, 48 h
SK-OV-3 = system: SK-OV-3
M14 = system: M14
T47D = system: T47D
NCI-H522 = system: NCI-H522
Malme-3M = system: Malme-3M
SR = system: SR
HCC 2998 = system: HCC 2998
MCF7 = system: MCF7
ACHN = system: ACHN
NCI/ADR-RES = system: NCI/ADR-RES
MDA-MB-435 = system: MDA-MB-435
DU-145 = system: DU-145
MDA-MB-231 = system: MDA-MB-231
786-0 = system: 786-0
TK-10 = system: TK-10
DLD-1 = system: DLD-1
HOP-18 = system: HOP-18
DMS-114 = system: DMS-114
SNB-78 = system: SNB-78
DMS-273 = system: DMS-273

Compound	GI50 (SK-OV-3)	GI50 (M14)	GI50 (T47D)	GI50 (NCI-H522)	GI50 (Malme-3M)	GI50 (SR)	GI50 (HCC 2998)	GI50 (MCF7)	GI50 (ACHN)	GI50 (NCI/ADR-RES)	GI50 (MDA-MB-435)	GI50 (DU-145)	GI50 (MDA-MB-231)	GI50 (786-0)	GI50 (TK-10)	GI50 (DLD-1)	GI50 (HOP-18)	GI50 (DMS-114)	GI50 (SNB-78)	GI50 (DMS-273)
O=C1C(Cl)=C(N2CCN(CCOCCO)CC2)C(=O)c2ncccc21	> 10 µM (inactive)	> 10 µM (inactive)	2.23 µM (inactive)	2.56 µM (inactive)	7.85 µM (inactive)	> 10 µM (inactive)	> 10 µM (inactive)	> 10 µM (inactive)	> 10 µM (inactive)	> 10 µM (inactive)	2.65 µM (inactive)	> 10 µM (inactive)	> 10 µM (inactive)	> 10 µM (inactive)	> 10 µM (inactive)					
CCOC(=O)C(NC(=O)CC)(Nc1ccccc1OC)C(F)(F)F (configuration not stated)	> 100 µM (inactive)	> 100 µM (inactive)	> 100 µM (inactive)	> 100 µM (inactive)		> 100 µM (inactive)	> 100 µM (inactive)	> 100 µM (inactive)	> 100 µM (inactive)	> 100 µM (inactive)	> 100 µM (inactive)	> 100 µM (inactive)	> 100 µM (inactive)		> 100 µM (inactive)					
N/C(=C\c1ccc(/C=C(\NC(=O)c2ccccc2)c2nc3c([nH]2)C(=O)c2ccccc2C3=O)cc1)c1nc2c([nH]1)C(=O)c1ccccc1C2=O	24.1 µM (inactive)	16.2 µM (inactive)		11.9 µM (inactive)					15.6 µM (inactive)						23.1 µM (inactive)	12.7 µM (inactive)	14.3 µM (inactive)	7.55 µM (inactive)	20.6 µM (inactive)	18.5 µM (inactive)
CCOC(=O)/C=C(\C)c1ccc(OC)cc1		> 100 µM (inactive)			> 100 µM (inactive)	> 100 µM (inactive)	> 100 µM (inactive)		74.1 µM (inactive)						> 100 µM (inactive)	> 100 µM (inactive)	> 100 µM (inactive)	> 100 µM (inactive)	> 100 µM (inactive)	> 100 µM (inactive)
OCCNCN(CNCCO)c1nc(N(CNCCO)CNCCO)nc(N(CNCCO)CNCCO)n1	0.0861 µM (active)	0.0577 µM (active)		0.0653 µM (active)	0.04 µM (active)				0.04 µM (active)						0.133 µM (active)	0.04 µM (active)	0.0841 µM (active)		0.0959 µM (active)	> 0.4 µM (active)
COc1cc(/C=N/c2ccccn2)cc(OC)c1OC	> 63.8 µM (inactive)	> 100 µM (inactive)	> 100 µM (inactive)	> 100 µM (inactive)	> 100 µM (inactive)	> 63.2 µM (inactive)	> 100 µM (inactive)	54.5 µM (inactive)	> 100 µM (inactive)	> 100 µM (inactive)	24.5 µM (inactive)	> 100 µM (inactive)	> 100 µM (inactive)	> 100 µM (inactive)						
Oc1cc(CN2COc3ccccc32)c(O)cc1CNC1CCCCC1	64.9 µM (inactive)	31.3 µM (inactive)	26.4 µM (inactive)	14.1 µM (inactive)	18.9 µM (inactive)	20.1 µM (inactive)		20.4 µM (inactive)	29.2 µM (inactive)	37.2 µM (inactive)	24.6 µM (inactive)	45.2 µM (inactive)	21.9 µM (inactive)	18.5 µM (inactive)	21.6 µM (inactive)					
O=C(O[C@@H](/C=C/c1ccccc1)P1(=O)N(Cc2ccccc2)[C@H]2CCCC[C@@H]2N1Cc1ccccc1)c1ccccc1	4.54 µM (inactive)	4.18 µM (inactive)	2.44 µM (inactive)	3.55 µM (inactive)	4.2 µM (inactive)	2.86 µM (inactive)	2.58 µM (inactive)	2.32 µM (inactive)	2.32 µM (inactive)	3.52 µM (inactive)	3.21 µM (inactive)	6.21 µM (inactive)	2.29 µM (inactive)	4.32 µM (inactive)	3.52 µM (inactive)					
COC(=O)C#Cc1cccc(OC)c1OC	48 µM (inactive)	49.7 µM (inactive)	> 100 µM (inactive)		28 µM (inactive)	18.7 µM (inactive)	24.4 µM (inactive)	19.7 µM (inactive)	60 µM (inactive)	30.3 µM (inactive)	33.7 µM (inactive)	88.1 µM (inactive)	62.8 µM (inactive)	43.8 µM (inactive)	41.8 µM (inactive)					
CCOC(=O)/C(C#N)=C1/SC(C(=O)N/N=C/c2ccc(OC)cc2)=C(N)N1c1ccccc1	32.4 µM (inactive)			> 100 µM (inactive)		> 100 µM (inactive)	> 100 µM (inactive)		28.9 µM (inactive)						> 100 µM (inactive)	> 100 µM (inactive)	> 100 µM (inactive)			
CC(=O)OC1COC(Nn2c(=O)[nH]c3ccccc3c2=O)C(OC(C)=O)C1OC(C)=O (configuration not stated)	> 100 µM (inactive)	> 100 µM (inactive)	47.1 µM (inactive)			> 100 µM (inactive)		> 100 µM (inactive)	> 100 µM (inactive)	17.9 µM (inactive)	> 100 µM (inactive)	> 100 µM (inactive)	> 100 µM (inactive)	> 100 µM (inactive)	> 100 µM (inactive)					
CCOC(=O)C1S/C(=N\C(=N)N[N+](=O)[O-])N=C1C (configuration not stated)				> 100 µM (inactive)	> 100 µM (inactive)	> 100 µM (inactive)	> 100 µM (inactive)		> 100 µM (inactive)					> 100 µM (inactive)	> 100 µM (inactive)	> 100 µM (inactive)	> 100 µM (inactive)	> 100 µM (inactive)		
COc1cc2c(cc1OC)C(C)N(C)c1c-2c(OC(C)=O)cc2cc(OC)c(OC)cc12 (configuration not stated)	27.7 µM (inactive)	11.7 µM (inactive)	8.24 µM (inactive)	3.34 µM (inactive)	3.72 µM (inactive)		15.6 µM (inactive)	12.5 µM (inactive)	17.3 µM (inactive)	7.48 µM (inactive)	15.8 µM (inactive)	16.9 µM (inactive)	5.92 µM (inactive)	13.1 µM (inactive)	23.2 µM (inactive)					
COCCOCC(=O)N(CCn1ccc(NC(c2ccccc2)(c2ccccc2)c2ccccc2)nc1=O)CCn1cnc2nc(N)[nH]c(=O)c21		> 100 µM (inactive)			> 100 µM (inactive)	> 100 µM (inactive)	> 100 µM (inactive)		> 100 µM (inactive)					> 100 µM (inactive)	> 100 µM (inactive)	> 100 µM (inactive)	> 100 µM (inactive)	> 100 µM (inactive)	> 100 µM (inactive)	> 100 µM (inactive)
C=C1C(=O)OC2C=C(CCC(C)=O)C(C)C(OC(C)=O)CC12 (configuration not stated)		5.42 µM (inactive)			11.2 µM (inactive)	11.8 µM (inactive)	9.93 µM (inactive)		6.84 µM (inactive)					9.68 µM (inactive)	12 µM (inactive)		11.7 µM (inactive)		7.94 µM (inactive)	
COc1ccc(/C=N/N=C(N)N)c(C(=O)O)c1OC	> 100 µM (inactive)	> 100 µM (inactive)		> 100 µM (inactive)					> 100 µM (inactive)						> 100 µM (inactive)		> 100 µM (inactive)	> 100 µM (inactive)	> 100 µM (inactive)	> 100 µM (inactive)
O=C(CCCN1CCC2(CC1)CC(=O)N(N1CCCCCC1)C2=O)c1ccccc1	> 100 µM (inactive)	> 100 µM (inactive)	> 100 µM (inactive)	> 100 µM (inactive)	> 100 µM (inactive)	14.2 µM (inactive)		> 100 µM (inactive)	> 100 µM (inactive)	> 100 µM (inactive)	> 100 µM (inactive)	> 100 µM (inactive)	> 100 µM (inactive)	> 100 µM (inactive)	> 100 µM (inactive)					
C/N=c1/ssc(=S)n1C(C)C		12.8 µM (inactive)					13.9 µM (inactive)		20.8 µM (inactive)						44.6 µM (inactive)			3.13 µM (inactive)		
COc1c2c(cc3c1-c1c(cc4c(c1OC)OCO4)C1OC3C(C)C1C)OCO2.COc1cc2c(c(OC)c1OC)-c1c(cc3c(c1OC)OCO3)C1OC2C(C)C1C (configuration not stated)	> 100 µM (inactive)	> 100 µM (inactive)	26.1 µM (inactive)	61.4 µM (inactive)	> 100 µM (inactive)	> 100 µM (inactive)	56.4 µM (inactive)	> 100 µM (inactive)	> 100 µM (inactive)		> 100 µM (inactive)	91.8 µM (inactive)	8 µM (inactive)	> 100 µM (inactive)	> 100 µM (inactive)					
COc1cccc(/C=C2\CCCCCC2=O)c1	> 100 µM (inactive)	> 100 µM (inactive)	> 100 µM (inactive)	> 100 µM (inactive)	> 100 µM (inactive)	26.7 µM (inactive)	> 100 µM (inactive)		> 100 µM (inactive)		48.1 µM (inactive)	> 100 µM (inactive)	> 100 µM (inactive)	> 100 µM (inactive)	> 100 µM (inactive)					
O=c1c(Cc2c(O)oc3cc(O)ccc3c2=O)c(O)oc2cc(O)ccc12	> 100 µM (inactive)	> 100 µM (inactive)	> 100 µM (inactive)		> 100 µM (inactive)	> 100 µM (inactive)	> 100 µM (inactive)	> 100 µM (inactive)		> 100 µM (inactive)	> 100 µM (inactive)	> 100 µM (inactive)	> 100 µM (inactive)		> 100 µM (inactive)					
CC1(C)C(O)C[C@@H](O)[C@@]2(C)C1CC[C@]1(C)C2C[C@@H](O)[C@@H]2C([C@@]3(C)CC[C@@H](C(C)(C)O)O3)CCC21C (some centres not stated)	15.9 µM (inactive)	13.8 µM (inactive)		14.6 µM (inactive)	13.4 µM (inactive)	8.83 µM (inactive)	17.5 µM (inactive)		19.1 µM (inactive)					15.3 µM (inactive)	27.2 µM (inactive)	16.5 µM (inactive)	16.8 µM (inactive)	15.5 µM (inactive)	21.3 µM (inactive)	14.6 µM (inactive)
